Among the data in US9062078B2, “Substituted 7-azabicyles and their use as orexin receptor modulators” (priority 2013, dated 2015) are Ki values, retold here.

The Ki is a measure of affinity in units of concentration, obtained from inhibition or displacement.

The target in one experiment is human orexin 1 receptor (Homo sapiens (Human), UniProt O43613). In words: Human orexin 1 receptor radioligand binding (competitive, [3H]-SB674042, CHO cell preparations).
The target in another experiment is human orexin 2 receptor (Homo sapiens (Human), UniProt O43614). In words: Human orexin 2 receptor radioligand binding (competitive, [3H]-EMPA, HEK293 cell preparations).
Chain of human orexin 2 receptor (O43614 whole entry): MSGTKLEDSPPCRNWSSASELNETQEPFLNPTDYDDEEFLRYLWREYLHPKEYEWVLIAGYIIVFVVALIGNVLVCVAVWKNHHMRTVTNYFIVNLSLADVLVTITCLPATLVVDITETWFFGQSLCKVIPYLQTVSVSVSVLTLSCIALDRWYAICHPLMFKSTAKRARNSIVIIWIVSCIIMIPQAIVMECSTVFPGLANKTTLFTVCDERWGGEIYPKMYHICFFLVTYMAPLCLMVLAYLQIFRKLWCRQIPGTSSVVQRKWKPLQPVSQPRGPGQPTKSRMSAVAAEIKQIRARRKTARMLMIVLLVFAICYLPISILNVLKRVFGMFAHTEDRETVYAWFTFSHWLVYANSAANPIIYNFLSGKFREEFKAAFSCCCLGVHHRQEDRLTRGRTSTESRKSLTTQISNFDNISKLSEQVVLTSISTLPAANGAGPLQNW
Setting [1] is: human orexin 1 receptor, [3H]-SB674042 competition binding, read-out: hOX1 Ki (nm).
Setting [2] is: human orexin 2 receptor, [3H]-EMPA competition binding, read-out: hOX2 Ki (nm).

Like-named read-outs stand apart in the source and are kept apart here.

Chain of human orexin 1 receptor (O43613 whole entry): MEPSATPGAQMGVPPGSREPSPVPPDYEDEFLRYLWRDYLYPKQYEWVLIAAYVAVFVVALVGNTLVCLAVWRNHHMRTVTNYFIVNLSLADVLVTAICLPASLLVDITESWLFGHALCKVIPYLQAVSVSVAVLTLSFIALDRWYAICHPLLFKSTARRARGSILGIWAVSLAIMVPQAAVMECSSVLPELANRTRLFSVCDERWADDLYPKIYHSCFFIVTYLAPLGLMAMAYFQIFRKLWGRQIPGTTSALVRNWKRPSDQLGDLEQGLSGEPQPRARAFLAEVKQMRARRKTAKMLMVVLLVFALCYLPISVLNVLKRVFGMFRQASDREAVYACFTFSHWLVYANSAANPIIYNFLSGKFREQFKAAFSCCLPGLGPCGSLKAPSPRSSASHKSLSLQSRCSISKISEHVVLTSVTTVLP

`Cc1ccc(-n2nccn2)c(C(=O)N2C3CCC2C(COc2cccc(C)n2)C3)c1` (racemic) [Example 18, (±)-(5-methyl-2-(2H-1,2,3-triazol-2-yl)phenyl)(2-(((6-methylpyridin-2-yl)oxy)methyl)-7-azabicyclo[2.2.1]heptan-7-yl)methanone]: the figures for the Ki on human orexin 1 receptor (setting [1]) and on human orexin 2 receptor (setting [2]) were 12 nM and 44 nM, respectively.

`Cc1ccc(OCC2CC3CCC2N3C(=O)c2cc(C)ccc2-n2nccn2)nc1` (racemic) [Example 19, (±)-(5-methyl-2-(2H-1,2,3-triazol-2-yl)phenyl)(2-(((5-methylpyridin-2-yl)oxy)methyl)-7-azabicyclo[2.2.1]heptan-7-yl)methanone]: the values for the Ki at human orexin 1 receptor (setting [1]) and on human orexin 2 receptor (setting [2]) were 12 nM and 44 nM, respectively.

As for `Cc1ccc(-n2nccn2)c(C(=O)N2C3CCC2C(COc2nc(C)cnc2C)C3)c1` (racemic) [Example 20, (±)-(2-(((3,6-dimethylpyrazin-2-yl)oxy)methyl)-7-azabicyclo[2.2.1]heptan-7-yl)(5-methyl-2-(2H-1,2,3-triazol-2-yl)phenyl)methanone], the inhibitory constant (Ki) at human orexin 1 receptor (setting [1]) came to 270 nM; on human orexin 2 receptor (setting [2]), 364 nM.

Consider `Cc1ccc(-n2nccn2)c(C(=O)N2C3CCC2C(COc2nc4ccccc4nc2C(F)(F)F)C3)c1` (racemic) [Example 21, (±)-(5-methyl-2-(2H-1,2,3-triazol-2-yl)phenyl)(2-(((3-(trifluoromethyl)quinoxalin-2-yl)oxy)methyl)-7-azabicyclo[2.2.1]heptan-7-yl)methanone], for which the values for the Ki at human orexin 1 receptor (hOX1 Ki (nm)) and at human orexin 2 receptor (setting [2]) were 300 nM and 487 nM, respectively.

For `O=C(c1ccccc1-n1nccn1)N1C2CCC1C(COc1ccc(F)cn1)C2` (racemic) [Example 22, (±)-(2-(2H-1,2,3-triazol-2-yl)phenyl)(2-(((5-fluoropyridin-2-yl)oxy)methyl)-7-azabicyclo[2.2.1]heptan-7-yl)methanone], the Ki was 47 nM at human orexin 1 receptor (setting [1]) and 50 nM at human orexin 2 receptor (setting [2]).

Turning to `O=C(c1cccc2cccnc12)N1C2CCC1C(COc1ccc(F)cn1)C2` (racemic) [Example 23, (±)-2-(((5-fluoropyridin-2-yl)oxy)methyl)-7-azabicyclo[2.2.1]heptan-7-yl)(quinolin-8-yl)methanone], the results for the Ki at human orexin 1 receptor (setting [1]) and at human orexin 2 receptor (setting [2]) were 322 nM and 1500 nM, respectively.

For `O=C(c1cccc2ccccc12)N1C2CCC1C(COc1ccc(F)cn1)C2` (racemic) [Example 24, (±)-2-(((5-fluoropyridin-2-yl)oxy)methyl)-7-azabicyclo[2.2.1]heptan-7-yl)(naphthalen-1-yl)methanone], the results for the Ki at human orexin 1 receptor (setting [1]) and at human orexin 2 receptor (setting [2]) were 122 nM and 164 nM, respectively.

On to `Cc1ccc2ccccc2c1C(=O)N1C2CCC1C(COc1ccc(F)cn1)C2` (racemic) [Example 25, (±)-2-(((5-fluoropyridin-2-yl)oxy)methyl)-7-azabicyclo[2.2.1]heptan-7-yl)(2-methylnaphthalen-1-yl)methanone], for which the figures for the Ki on human orexin 1 receptor (hOX1 Ki (nm)) and on human orexin 2 receptor (hOX2 Ki (nm)) were 74 nM and 160 nM, respectively.

Turning to `O=C(c1ccccc1-n1cccn1)N1C2CCC1C(COc1ccc(F)cn1)C2` (racemic) [Example 26, (±)-2-(1H-pyrazol-1-yl)phenyl)(2-(((5-fluoropyridin-2-yl)oxy)methyl)-7-azabicyclo[2.2.1]heptan-7-yl)methanone], the results for the Ki at human orexin 1 receptor (setting [1]) and on human orexin 2 receptor (setting [2]) were 117 nM and 394 nM, respectively.

Turning to `O=C(c1occc1-c1ccccc1)N1C2CCC1C(COc1ccc(F)cn1)C2` (racemic) [Example 27, (±)-2-(((5-fluoropyridin-2-yl)oxy)methyl)-7-azabicyclo[2.2.1]heptan-7-yl)(3-phenylfuran-2-yl)methanone], the figures for the Ki at human orexin 1 receptor (setting [1]) and on human orexin 2 receptor (hOX2 Ki (nm)) were 677 nM and 380 nM, respectively.

Regarding `CCOc1ccc2ccccc2c1C(=O)N1C2CCC1C(COc1ccc(F)cn1)C2` (racemic) [Example 28, (±)-(2-ethoxynaphthalen-1-yl)(2-(((5-fluoropyridin-2-yl)oxy)methyl)-7-azabicyclo[2.2.1]heptan-7-yl)methanone], the Ki on human orexin 1 receptor (setting [1]) is 14 nM; at human orexin 2 receptor (setting [2]), 11 nM.

As for `Cc1nc(C(=O)N2C3CCC2C(COc2ccc(F)cn2)C3)c(-c2ccccc2F)s1` (racemic) [Example 29, (±)-(5-(2-fluorophenyl)-2-methylthiazol-4-yl)(2-(((5-fluoropyridin-2-yl)oxy)methyl)-7-azabicyclo[2.2.1]heptan-7-yl)methanone], the Ki on human orexin 1 receptor (setting [1]) was 11 nM; on human orexin 2 receptor (setting [2]), 60 nM.

For the compound `O=C(c1cc(F)ccc1-n1nccn1)N1C2CCC1C(COc1ccc(F)cn1)C2` (racemic) [Example 30, (±)-(5-fluoro-2-(2H-1,2,3-triazol-2-yl)phenyl)(2-(((5-fluoropyridin-2-yl)oxy)methyl)-7-azabicyclo[2.2.1]heptan-7-yl)methanone], the Ki on human orexin 1 receptor (setting [1]) was determined as 47 nM; at human orexin 2 receptor (setting [2]) it was 149 nM.

With `O=C(c1c(F)cccc1-c1ncccn1)N1C2CCC1C(COc1ccc(F)cn1)C2` (racemic) [Example 31, (±)-(2-fluoro-6-(pyrimidin-2-yl)phenyl)(2-(((5-fluoropyridin-2-yl)oxy)methyl)-7-azabicyclo[2.2.1]heptan-7-yl)methanone], the Ki at human orexin 1 receptor (setting [1]) was 33 nM; at human orexin 2 receptor (setting [2]) it was 122 nM.

Take `O=C(c1cc(F)ccc1-c1ncccn1)N1C2CCC1C(COc1ccc(F)cn1)C2` (racemic) [Example 32, (±)-(5-fluoro-2-(pyrimidin-2-yl)phenyl)(2-(((5-fluoropyridin-2-yl)oxy)methyl)-7-azabicyclo[2.2.1]heptan-7-yl)methanone]: the Ki was 21 nM at human orexin 1 receptor (hOX1 Ki (nm)) and 123 nM on human orexin 2 receptor (setting [2]).

For the compound `O=C(c1ccccc1-n1nccn1)N1C2CCC1C(COc1cnc3ccccc3n1)C2` (racemic) [Example 34, (±)-(2-(2H-1,2,3-triazol-2-yl)phenyl)(2-((quinoxalin-2-yloxy)methyl)-7-azabicyclo[2.2.1]heptan-7-yl)methanone], the results for the inhibition constant Ki at human orexin 1 receptor (setting [1]) and at human orexin 2 receptor (setting [2]) were 60 nM and 467 nM, respectively.

In the case of `Cc1ccc(-n2nccn2)c(C(=O)N2C3CCC2C(COc2cnc4ccccc4n2)C3)c1` (racemic) [Example 36, (±)-(5-methyl-2-(2H-1,2,3-triazol-2-yl)phenyl)(2-((quinoxalin-2-yloxy)methyl)-7-azabicyclo[2.2.1]heptan-7-yl)methanone], the Ki is 70 nM on human orexin 1 receptor (setting [1]) and 107 nM at human orexin 2 receptor (setting [2]).

Take `O=C(c1cc(F)ccc1-n1nccn1)N1C2CCC1C(COc1cnc3ccccc3n1)C2` (racemic) [Example 37, (±)-(5-fluoro-2-(2H-1,2,3-triazol-2-yl)phenyl)(2-((quinoxalin-2-yloxy)methyl)-7-azabicyclo[2.2.1]heptan-7-yl)methanone]: the values for the Ki on human orexin 1 receptor (setting [1]) and on human orexin 2 receptor (setting [2]) were 300 nM and 487 nM, respectively.

For the compound `Cc1ccc(-c2ncccn2)c(C(=O)N2C3CCC2C(COc2cnc4ccccc4n2)C3)c1` (racemic) [Example 38, (±)-(5-methyl-2-(pyrimidin-2-yl)phenyl)(2-((quinoxalin-2-yloxy)methyl)-7-azabicyclo[2.2.1]heptan-7-yl)methanone], the Ki came to 120 nM at human orexin 1 receptor (hOX1 Ki (nm)) and 383 nM at human orexin 2 receptor (setting [2]).

For the compound `Cc1ccc(-n2nccn2)c(C(=O)N2C3CCC2C(COc2nc(C)cc(C)n2)C3)c1` (racemic) [Example 39, (±)-(2-(((4,6-dimethylpyrimidin-2-yl)oxy)methyl)-7-azabicyclo[2.2.1]heptan-7-yl)(5-methyl-2-(2H-1,2,3-triazol-2-yl)phenyl)methanone], the values for the Ki on human orexin 1 receptor (hOX1 Ki (nm)) and on human orexin 2 receptor (setting [2]) were 29 nM and 27 nM, respectively.

For the compound `Cc1cc(C)nc(OCC2CC3CCC2N3C(=O)c2c(C)noc2-c2ccccc2)n1` (racemic) [Example 40, (±)-2-(((4,6-dimethylpyrimidin-2-yl)oxy)methyl)-7-azabicyclo[2.2.1]heptan-7-yl)(3-methyl-5-phenylisoxazol-4-yl)methanone], the figures for the Ki on human orexin 1 receptor (setting [1]) and on human orexin 2 receptor (setting [2]) were 5000 nM and 1200 nM, respectively.

As for `CCOc1ccc2ccccc2c1C(=O)N1C2CCC1C(COc1nc(C)cc(C)n1)C2` (racemic) [Example 41, (±)-(2-(((4,6-dimethylpyrimidin-2-yl)oxy)methyl)-7-azabicyclo[2.2.1]heptan-7-yl)(2-ethoxynaphthalen-1-yl)methanone], the Ki is 35 nM on human orexin 1 receptor (setting [1]) and 22 nM on human orexin 2 receptor (setting [2]).

As to `Cc1cc(C)nc(OCC2CC3CCC2N3C(=O)c2c(F)cccc2-c2ncccn2)n1` (racemic) [Example 43, (±)-(2-(((4,6-dimethylpyrimidin-2-yl)oxy)methyl)-7-azabicyclo[2.2.1]heptan-7-yl)(2-fluoro-6-(pyrimidin-2-yl)phenyl)methanone], the values for the Ki at human orexin 1 receptor (setting [1]) and on human orexin 2 receptor (setting [2]) were 222 nM and 92 nM, respectively.

Take `Cc1cc(C)nc(OCC2CC3CCC2N3C(=O)c2cc(F)ccc2-c2ncccn2)n1` (racemic) [Example 44, (±)-(2-(((4,6-dimethylpyrimidin-2-yl)oxy)methyl)-7-azabicyclo[2.2.1]heptan-7-yl)(5-fluoro-2-(pyrimidin-2-yl)phenyl)methanone]: the Ki on human orexin 1 receptor (hOX1 Ki (nm)) is 400 nM; at human orexin 2 receptor (setting [2]) it was 104 nM.

In the case of `Cc1ccc(-c2ncccn2)c(C(=O)N2C3CCC2C(COc2nc(C)cc(C)n2)C3)c1` (racemic) [Example 45, (±)-(2-(((4,6-dimethylpyrimidin-2-yl)oxy)methyl)-7-azabicyclo[2.2.1]heptan-7-yl)(5-methyl-2-(pyrimidin-2-yl)phenyl)methanone], the Ki at human orexin 1 receptor (setting [1]) worked out at 79 nM; at human orexin 2 receptor (setting [2]), 59 nM.

In the case of `Cc1cc(C)nc(OCC2CC3CCC2N3C(=O)c2ccccc2-c2cccs2)n1` (racemic) [Example 46, (±)-(2-(((4,6-dimethylpyrimidin-2-yl)oxy)methyl)-7-azabicyclo[2.2.1]heptan-7-yl)(2-(thiophen-2-yl)phenyl)methanone], the results for the Ki at human orexin 1 receptor (setting [1]) and at human orexin 2 receptor (setting [2]) were 82 nM and 10 nM, respectively.

Consider `Cc1noc(-c2ccccc2C(=O)N2C3CCC2C(COc2ccccn2)C3)n1` (racemic) [Example 127, (±)-(2-(3-methyl-1,2,4-oxadiazol-5-yl)phenyl)(2-((pyridin-2-yloxy)methyl)-7-azabicyclo[2.2.1]heptan-7-yl)methanone], for which the Ki on human orexin 1 receptor (setting [1]) is 190 nM; on human orexin 2 receptor (setting [2]), 1100 nM.
